Laboratory results from ChEMBL document CHEMBL4831484, “Identification of 3, 4-disubstituted pyridine derivatives as novel CDK8 inhibitors” (Eur J Med Chem, 2021).
The source made the active and inactive calls. The rule behind the calls is not given here.

Assays:
[1] = Antiproliferative activity against human KB-VIN cells assessed as inhibition of cell growth measured after 72 hrs by SRB assay; type: functional; conditions: KBVIN
KB = assay: Antiproliferative activity against human KB cells assessed as inhibition of cell growth measured after 72 hrs by SRB assay; type: functional
A549 = assay: Antiproliferative activity against human A549 cells assessed as inhibition of cell growth measured after 72 hrs by SRB assay; type: functional
[2] = molecular target: CDK8/Cyclin C (Homo sapiens) (UniProt P49336+P24863); assay: Inhibition of CDK8/Cyclin C (unknown origin) at 10 uM measured after 1 hr by plate reader assay relative to control; type: protein-complex assay
MCF7 = assay: Antiproliferative activity against human MCF7 cells assessed as inhibition of cell growth measured after 72 hrs by SRB assay; type: functional
[3] = molecular target: Cyclin-dependent kinase 8 (Homo sapiens) (UniProt P49336); assay: Inhibition of CDK8 (unknown origin) at 10 uM
MDA-MB-231 [4] = assay: Antiproliferative activity against human MDA-MB-231 cells assessed as inhibition of cell growth measured after 72 hrs by SRB assay; type: functional
HCT-116 [5] = assay: Antiproliferative activity against human HCT-116 cells assessed as inhibition of cell growth measured after 72 hrs by […]; type: functional
CDK8/Cyclin C = CDK8/Cyclin C (Homo sapiens, UniProt P49336); assay: Inhibition of CDK8/Cyclin C (unknown origin) measured after 1 hr by plate reader assay; type: protein-complex assay
[6] = molecular target: Cyclin-dependent kinase 7 (Homo sapiens) (UniProt P50613); assay: Inhibition of CDK7 (unknown origin) at 10 uM
[7] = AUC (0 to 24h) in ICR mouse at 150 mg/kg, po measured after 24 hrs by LC-MS/MS analysis; type: ADME, organism-based; design: route oral, dose 150 mg/kg, time 24 hrs; conditions: in vivo
HCT-116 [8] = assay: Antitumour activity against human HCT-116 cells assessed as decrease in tumor volume at 150 mg/kg, po measured after 14 days relative to control; type: functional; design: scale not given: the % may be the effect or the level left; conditions: time 14 day
[9] = Cmax in ICR mouse at 150 mg/kg, po measured after 24 hrs by LC-MS/MS analysis; type: ADME, organism-based; design: route oral, time 24 hrs, dose 150 mg/kg; conditions: in vivo
[10] = MRT (0 to 24h) in ICR mouse at 150 mg/kg, po measured after 24 hrs by LC-MS/MS analysis; type: ADME, organism-based; conditions: in vivo
[11] = Toxicity in BALB/c mouse xenografted with human HCT-116 cells assessed as changes in body weight at 150 mg/kg, po measured after 14 days; type: organism-based; conditions: in vivo, 336 h, time 14 day
[12] = Tmax in ICR mouse at 150 mg/kg, po measured after 24 hrs by LC-MS/MS analysis; type: ADME, organism-based; conditions: in vivo
[13] = Toxicity in BALB/c mouse xenografted with human HCT-116 cells assessed as mortality at 150 mg/kg, po measured after 14 days; type: organism-based; conditions: in vivo, 336 h, time 14 day
[14] = Half-life in ICR mouse at 150 mg/kg, po measured after 24 hrs by LC-MS/MS analysis; type: ADME, organism-based; conditions: in vivo
MDA-MB-231 [15] = assay: Induction of cell cycle arrest in human MDA-MB-231 cells assessed as accumulation of cells at G2/M phase measured after 24 hrs by PI staining based flow cytometry assay; type: functional

Chain of CDK8/Cyclin C (P49336 whole entry): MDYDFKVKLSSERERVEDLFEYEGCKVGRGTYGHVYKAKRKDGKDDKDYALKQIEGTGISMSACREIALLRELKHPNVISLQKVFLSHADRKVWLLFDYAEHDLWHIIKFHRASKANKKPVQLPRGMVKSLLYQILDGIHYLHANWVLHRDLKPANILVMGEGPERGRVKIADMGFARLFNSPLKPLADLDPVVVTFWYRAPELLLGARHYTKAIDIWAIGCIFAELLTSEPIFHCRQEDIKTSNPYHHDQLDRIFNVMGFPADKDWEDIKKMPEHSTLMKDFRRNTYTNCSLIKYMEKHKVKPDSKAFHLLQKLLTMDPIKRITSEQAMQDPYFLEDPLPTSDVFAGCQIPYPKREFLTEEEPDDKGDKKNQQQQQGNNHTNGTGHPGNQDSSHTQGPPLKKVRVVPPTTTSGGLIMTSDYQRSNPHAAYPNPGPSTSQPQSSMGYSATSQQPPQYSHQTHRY
Chain of CDK8/Cyclin C (P24863 whole entry, further chain): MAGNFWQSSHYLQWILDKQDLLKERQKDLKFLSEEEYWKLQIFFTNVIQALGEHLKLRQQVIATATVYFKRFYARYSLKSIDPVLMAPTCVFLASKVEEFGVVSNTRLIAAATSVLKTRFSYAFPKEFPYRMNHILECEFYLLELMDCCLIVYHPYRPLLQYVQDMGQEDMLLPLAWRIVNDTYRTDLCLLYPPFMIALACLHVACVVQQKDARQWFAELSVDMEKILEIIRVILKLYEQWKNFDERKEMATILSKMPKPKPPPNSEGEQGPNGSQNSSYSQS
Chain of Cyclin-dependent kinase 8 (Homo sapiens) (P49336 whole entry): as the sequence (P49336 whole entry) above
Chain of Cyclin-dependent kinase 7 (Homo sapiens) (P50613 whole entry): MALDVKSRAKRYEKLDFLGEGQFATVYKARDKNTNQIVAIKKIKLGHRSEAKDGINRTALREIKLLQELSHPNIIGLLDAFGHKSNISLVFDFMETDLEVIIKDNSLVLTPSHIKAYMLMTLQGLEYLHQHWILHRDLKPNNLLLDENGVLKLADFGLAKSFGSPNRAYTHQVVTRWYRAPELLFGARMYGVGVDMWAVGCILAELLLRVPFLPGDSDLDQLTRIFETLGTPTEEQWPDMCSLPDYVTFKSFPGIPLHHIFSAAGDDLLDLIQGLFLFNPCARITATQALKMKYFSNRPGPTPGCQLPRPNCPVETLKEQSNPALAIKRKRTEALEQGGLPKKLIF

Row | Structure (SMILES) | GI50 [1] [µM] | GI50 (KB) [µM] | GI50 (A549) [µM] | inhibition [2] [%] | GI50 (MCF7) [µM] | inhibition [3] | GI50 (MDA-MB-231 [4]) [µM] | GI50 (HCT-116 [5]) [µM] | IC50 (CDK8/Cyclin C) [µM] | inhibition [6] | AUC(0-t) at 24 h [7] [ng·h/mL] | Activity (HCT-116 [8]) [%] | Cmax [9] [ng/mL] | MRT last at 24 h [10] [h] | Activity [11] | Tmax [12] [h] | Activity [13] | half-life [14] [h] | Activity (MDA-MB-231 [15])
1 | O=C(/C=C/c1ccncc1-c1ccc2cc[nH]c2c1)N1CCOCC1 | > 10 | > 10 | > 10 | 102 | > 10 | Active | > 10 | > 30 | 0.0439 | Active |  |  |  |  |  |  |  |  | 
2 | COC(=O)/C=C/c1ccncc1-c1ccc2ccccc2c1 | 5.46 | 6.73 | 0.76 | 102 | 8.17 |  | 4.71 | 0.35 | 0.0406 |  | 153 | 44 | 46.6 | 2.68 | Non-Toxic | 0.57 | Non-Toxic | 3.93 | 
3 | CN(C)C(=O)/C=C/c1ccncc1-c1ccc2ccccc2c1 | 4.93 | 7.76 | 5.8 | 100 | 8.19 |  | 7.99 | 4.54 | 0.0301 |  |  |  |  |  |  |  |  |  | Dose-Dependent Effect
